Source: ChEMBL document CHEMBL1629650 (2009)
≈ marks a conversion by molar mass, not a printed value.

Experiments:
Assay type in all cases: functional
[1] = system: Mycobacterium tuberculosis; assay: Antibacterial activity against Mycobacterium tuberculosis Rv44 harboring embB ATG-ATA (M306I) mutation in embB by modified conventional agar proportion method
[2] = system: Mycobacterium tuberculosis; assay: Antibacterial activity against Mycobacterium tuberculosis B64 harboring embB ATG-GTG (M306V) mutation in embB by modified conventional agar proportion method
[3] = system: Mycobacterium tuberculosis; assay: Antibacterial activity against Mycobacterium tuberculosis B56 harboring embB ATG-GTG (M306V) mutation in embB by modified conventional agar proportion method
[4] = system: Mycobacterium tuberculosis; assay: Antibacterial activity against Mycobacterium tuberculosis B52 harboring embB ATG-GTG (M306V) mutation in embB by modified conventional agar proportion method
[5] = system: Mycobacterium tuberculosis; assay: Antibacterial activity against Mycobacterium tuberculosis Rv23 harboring embB ATG-GTG (M306V) mutation in embB by modified conventional agar proportion method
[6] = system: Mycobacterium tuberculosis; assay: Antibacterial activity against Mycobacterium tuberculosis Rv17 harboring embB ATG-GTG (M306V) mutation in embB by modified conventional agar proportion method
[7] = system: Mycobacterium tuberculosis; assay: Antibacterial activity against Mycobacterium tuberculosis Rv8 harboring embB ATG-GTG (M306V) mutation in embB by modified conventional agar proportion method
[8] = system: Mycobacterium tuberculosis; assay: Antibacterial activity against Mycobacterium tuberculosis B59 harboring embB ATG-GTG (M306V) mutation in embB by modified conventional agar proportion method
[9] = system: Mycobacterium tuberculosis; assay: Antibacterial activity against Mycobacterium tuberculosis B55 harboring embB ATG-GTG (M306V) mutation in embB by modified conventional agar proportion method
[10] = system: Mycobacterium tuberculosis; assay: Antibacterial activity against Mycobacterium tuberculosis Rv18 harboring embB ATG-GTG (M306V) mutation in embB by modified conventional agar proportion method
[11] = system: Mycobacterium tuberculosis; assay: Antibacterial activity against Mycobacterium tuberculosis B74 harboring embB GAC-GGC (D300G) mutation in embB by modified conventional agar proportion method
[12] = system: Mycobacterium tuberculosis; assay: Antibacterial activity against Mycobacterium tuberculosis Rv7 harboring embB ATG-GTG (M306V) mutation in embB by modified conventional agar proportion method
[13] = system: Mycobacterium tuberculosis; assay: Antibacterial activity against Mycobacterium tuberculosis B54 harboring embB ATG-ATA (M306I) mutation in embB by modified conventional agar proportion method
[14] = system: Mycobacterium tuberculosis; assay: Antibacterial activity against Mycobacterium tuberculosis B85 harboring embB ATG-ATA (M306I) mutation in embB by modified conventional agar proportion method
[15] = system: Mycobacterium tuberculosis; assay: Antibacterial activity against Mycobacterium tuberculosis B95 harboring embB ATG-ATA (M306I) mutation in embB by modified conventional agar proportion method
[16] = system: Mycobacterium tuberculosis; assay: Antibacterial activity against Mycobacterium tuberculosis B84 harboring embB ATG-ATC (M306I) mutation in embB by modified conventional agar proportion method
[17] = system: Mycobacterium tuberculosis; assay: Antibacterial activity against Mycobacterium tuberculosis B97 harboring embB ATG-ATC (M306I) mutation in embB by modified conventional agar proportion method
[18] = system: Mycobacterium tuberculosis; assay: Antibacterial activity against Mycobacterium tuberculosis B70 harboring embB ATG-ATC (M306I) mutation in embB by modified conventional agar proportion method
[19] = system: Mycobacterium tuberculosis; assay: Antibacterial activity against Mycobacterium tuberculosis Rv11 harboring embB ATG-CTG (M306L) mutation in embB by modified conventional agar proportion method
[20] = system: Mycobacterium tuberculosis; assay: Antibacterial activity against Mycobacterium tuberculosis B51 harboring embB ATG-ACG (M306T) mutation in embB by modified conventional agar proportion method
[21] = system: Mycobacterium tuberculosis; assay: Antibacterial activity against Mycobacterium tuberculosis B99 harboring embB CGC-CAC (R321H) mutation in embB by modified conventional agar proportion method
[22] = system: Mycobacterium tuberculosis; assay: Antibacterial activity against Mycobacterium tuberculosis Rv39 harboring embB GGC-CGC (G324R) mutation in embB by modified conventional agar proportion method
[23] = system: Mycobacterium tuberculosis; assay: Antibacterial activity against Mycobacterium tuberculosis B79 harboring embB GGC-CGC (G324R) mutation in embB by modified conventional agar proportion method
[24] = system: Mycobacterium tuberculosis; assay: Antibacterial activity against Mycobacterium tuberculosis Rv21 harboring embB GAT-TAT (D328Y) mutation in embB by modified conventional agar proportion method
[25] = system: Mycobacterium tuberculosis; assay: Antibacterial activity against Mycobacterium tuberculosis Rv31 harboring embB GAT-TAT (D328Y) mutation in embB by modified conventional agar proportion method
[26] = system: Mycobacterium tuberculosis; assay: Antibacterial activity against Mycobacterium tuberculosis B53 harboring embB GAT-TAT (D328Y) mutation in embB by modified conventional agar proportion method
[27] = system: Mycobacterium tuberculosis; assay: Antibacterial activity against Mycobacterium tuberculosis B96 harboring embB GAT-TAT (D328Y) mutation in embB by modified conventional agar proportion method
[28] = system: Mycobacterium tuberculosis; assay: Antibacterial activity against Mycobacterium tuberculosis B92 harboring embB GAC-GCC (D354A) mutation in embB by modified conventional agar proportion method
[29] = system: Mycobacterium tuberculosis; assay: Antibacterial activity against HYG cassette-negative EMB-resistant Mycobacterium tuberculosis Rv8 harboring embB M306V mutant gene by modified conventional agar proportion method
[30] = system: Mycobacterium tuberculosis; assay: Antibacterial activity against HYG cassette-positive Mycobacterium tuberculosis Rv8102 harboring embB M306V mutant gene by modified conventional agar proportion method
[31] = system: Mycobacterium tuberculosis; assay: Antibacterial activity against HYG cassette-negative EMB-resistant Mycobacterium tuberculosis Rv44 harboring embB M306I mutant gene by modified conventional agar proportion method
[32] = system: Mycobacterium tuberculosis; assay: Antibacterial activity against HYG cassette-positive Mycobacterium tuberculosis Rv4402 harboring embB M306I mutant gene by modified conventional agar proportion method
[33] = system: Mycobacterium tuberculosis; assay: Antibacterial activity against HYG cassette-negative EMB-resistant Mycobacterium tuberculosis B52 harboring embB M306V mutant gene by modified conventional agar proportion method
[34] = system: Mycobacterium tuberculosis; assay: Antibacterial activity against HYG cassette-positive Mycobacterium tuberculosis B5202 harboring embB M306V mutant gene by modified conventional agar proportion method
[35] = system: Mycobacterium tuberculosis; assay: Antibacterial activity against HYG cassette-negative EMB-resistant Mycobacterium tuberculosis B54 harboring embB M306I mutant gene by modified conventional agar proportion method
[36] = system: Mycobacterium tuberculosis; assay: Antibacterial activity against HYG cassette-positive Mycobacterium tuberculosis B5402 harboring embB M306I mutant gene by modified conventional agar proportion method
[37] = system: Mycobacterium tuberculosis; assay: Antibacterial activity against HYG cassette-positive Mycobacterium tuberculosis RvAS1 harboring embB M306V mutant gene by modified conventional agar proportion method
[38] = system: Mycobacterium tuberculosis; assay: Antibacterial activity against HYG cassette-positive Mycobacterium tuberculosis RvAS2 harboring embB M306V mutant gene by modified conventional agar proportion method
[39] = system: Mycobacterium tuberculosis; assay: Antibacterial activity against HYG cassette-positive Mycobacterium tuberculosis RvAS3 harboring embB M306I mutant gene by modified conventional agar proportion method
[40] = system: Mycobacterium tuberculosis; assay: Antibacterial activity against HYG cassette-positive Mycobacterium tuberculosis RvAS4 harboring embB M306I mutant gene by modified conventional agar proportion method
[41] = system: Mycobacterium tuberculosis; assay: Antibacterial activity against HYG cassette-positive Mycobacterium tuberculosis BAS5 harboring embB M306V mutant gene by modified conventional agar proportion method
[42] = system: Mycobacterium tuberculosis; assay: Antibacterial activity against HYG cassette-positive Mycobacterium tuberculosis BAS6 harboring embB M306V mutant gene by modified conventional agar proportion method
[43] = system: Mycobacterium tuberculosis; assay: Antibacterial activity against HYG cassette-positive Mycobacterium tuberculosis BAS7 harboring embB M306I mutant gene by modified conventional agar proportion method
[44] = system: Mycobacterium tuberculosis; assay: Antibacterial activity against HYG cassette-positive Mycobacterium tuberculosis BAS8 harboring embB M306I mutant gene by modified conventional agar proportion method

Compound: CC[C@@H](CO)NCCN[C@@H](CC)CO [ETHAMBUTOL]
- MIC [1]: 20 µg/mL (≈ 97.9 µM)
- MIC [2]: 20 µg/mL (≈ 97.9 µM)
- MIC [3]: 20 µg/mL (≈ 97.9 µM)
- MIC [4]: 20 µg/mL (≈ 97.9 µM)
- MIC [5]: 20 µg/mL (≈ 97.9 µM)
- MIC [6]: 20 µg/mL (≈ 97.9 µM)
- MIC [7]: 20 µg/mL (≈ 97.9 µM)
- MIC [8]: 20 µg/mL (≈ 97.9 µM)
- MIC [9]: 20 µg/mL (≈ 97.9 µM)
- MIC [10]: 20 µg/mL (≈ 97.9 µM)
- MIC [11]: 10 µg/mL (≈ 48.9 µM)
- MIC [12]: 20 µg/mL (≈ 97.9 µM)
- MIC [13]: 20 µg/mL (≈ 97.9 µM)
- MIC [14]: 20 µg/mL (≈ 97.9 µM)
- MIC [15]: 20 µg/mL (≈ 97.9 µM)
- MIC [16]: 20 µg/mL (≈ 97.9 µM)
- MIC [17]: 20 µg/mL (≈ 97.9 µM)
- MIC [18]: 40 µg/mL (≈ 196 µM)
- MIC [19]: 20 µg/mL (≈ 97.9 µM)
- MIC [20]: 20 µg/mL (≈ 97.9 µM)
- MIC [21]: 10 µg/mL (≈ 48.9 µM)
- MIC [22]: 20 µg/mL (≈ 97.9 µM)
- MIC [23]: 20 µg/mL (≈ 97.9 µM)
- MIC [24]: 20 µg/mL (≈ 97.9 µM)
- MIC [25]: 20 µg/mL (≈ 97.9 µM)
- MIC [26]: 20 µg/mL (≈ 97.9 µM)
- MIC [27]: 20 µg/mL (≈ 97.9 µM)
- MIC [28]: 20 µg/mL (≈ 97.9 µM)
- MIC [29]: 20 µg/mL (≈ 97.9 µM)
- MIC [30]: 20 µg/mL (≈ 97.9 µM)
- MIC [31]: 20 µg/mL (≈ 97.9 µM)
- MIC [32]: 20 µg/mL (≈ 97.9 µM)
- MIC [33]: 20 µg/mL (≈ 97.9 µM)
- MIC [34]: 20 µg/mL (≈ 97.9 µM)
- MIC [35]: 20 µg/mL (≈ 97.9 µM)
- MIC [36]: 20 µg/mL (≈ 97.9 µM)
- MIC [37]: 20 µg/mL (≈ 97.9 µM)
- MIC [38]: 20 µg/mL (≈ 97.9 µM)
- MIC [39]: 10 µg/mL (≈ 48.9 µM)
- MIC [40]: 10 µg/mL (≈ 48.9 µM)
- MIC [41]: 20 µg/mL (≈ 97.9 µM)
- MIC [42]: 20 µg/mL (≈ 97.9 µM)
- MIC [43]: 10 µg/mL (≈ 48.9 µM)
- MIC [44]: 10 µg/mL (≈ 48.9 µM)
